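Exposure lasted 48 hours, with cells grown in 96-well plates and compounds tested at five concentrations. The concentration for 50% growth inhibition is given as GI50. TGI: total growth inhibition.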
Columns and labels:
Assay in all cases: NCI-60 cell line screen, 48 h
CAKI-1 renal = system: CAKI-1 renal
HCT-116 colon = system: HCT-116 colon
HL-60(TB) leukemia = system: HL-60(TB) leukemia
HOP-62 NSCLC = system: HOP-62 NSCLC
IGROV1 ovarian = system: IGROV1 ovarian
NCI-H460 lung = system: NCI-H460 lung
OVCAR-3 ovarian = system: OVCAR-3 ovarian
SF-268 CNS = system: SF-268 CNS
SW-620 colon = system: SW-620 colon
MALME-3M melanoma = system: MALME-3M melanoma

Compound	GI50 (CAKI-1 renal) [µM]	TGI (CAKI-1 renal) [µM]	GI50 (HCT-116 colon) [µM]	TGI (HCT-116 colon) [µM]	GI50 (HL-60(TB) leukemia) [µM]	TGI (HL-60(TB) leukemia) [µM]	GI50 (HOP-62 NSCLC) [µM]	TGI (HOP-62 NSCLC) [µM]	GI50 (IGROV1 ovarian) [µM]	TGI (IGROV1 ovarian) [µM]	GI50 (NCI-H460 lung) [µM]	TGI (NCI-H460 lung) [µM]	GI50 (OVCAR-3 ovarian) [µM]	TGI (OVCAR-3 ovarian) [µM]	GI50 (SF-268 CNS) [µM]	TGI (SF-268 CNS) [µM]	GI50 (SW-620 colon) [µM]	TGI (SW-620 colon) [µM]	GI50 (MALME-3M melanoma) [µM]	TGI (MALME-3M melanoma) [µM]
Cc1ccc(/C=C2/SC(Nc3nc(-c4nc(NC5=NC(=O)/C(=C\c6ccc(C)cc6)S5)sc4C)c(C)s3)=NC2=O)cc1	0.484	9.41	9.2	20.9	0.368	> 50	0.005	2.65	7.29	> 50	0.643	> 50	0.329	1.51	2.51	> 50	0.714	> 50	–	–
CN1CCN(c2nc(NCCCCNc3ccnc4cc(Cl)ccc34)c3ccccc3n2)CC1	–	–	2.58	11.7	1.87	4.23	5.15	20.2	3.49	19	5.14	18.3	5.36	22.6	10.7	33.9	4.42	18.2	1.93	3.61
Cc1nc2cnc3cc(F)c(-c4ccc(Oc5ncccn5)cc4Cl)cc3c2n1[C@H]1CCN(C(=O)CO)C[C@@H]1F	0.558	16.4	0.255	15.4	0.106	1.69	0.642	49.3	0.936	> 100	2.54	> 100	20	> 76.3	6.12	> 100	0.422	54.6	–	0.0316
NNC(=O)CCC(=O)Nc1cc(Cl)c(Cl)cc1Cl	–	> 100	–	> 100	–	> 100	–	> 100	–	> 100	–	> 100	–	> 100	–	> 100	–	> 100	–	> 100
COc1ccc(C2=NN(C(=O)COc3ccc(Cl)cc3)C(O)(c3ccc(Cl)cc3)C2)cc1 (stereo not drawn)	–	> 100	–	> 100	–	> 100	–	> 100	–	> 100	–	> 100	–	> 100	–	> 100	–	> 100	–	> 100
O=C(/C=C/c1cccs1)c1ccc(Nc2nc(Nc3ccc(F)cc3)nc(Nc3ccc(F)cc3)n2)cc1	38.1	> 100	23.6	> 100	62.2	> 100	> 100	> 100	18	41	20.4	> 100	17.7	35.3	30.2	> 100	28.3	96.4	40.4	> 100
CC(C)[C@@]12C[C@@H](OC(=O)COC(=O)/C=C/c3ccccc3)[C@@](C)(O1)[C@@H]1CC[C@@H](C)[C@H]1[C@@H]2OC(=O)/C=C/c1ccccc1	0.0813	–	> 100	> 100	> 92.2	> 100	> 100	> 100	> 100	> 100	> 100	> 100	> 100	> 100	–	> 100	> 100	> 100	> 100	> 100
